This is an account of results in patent US20260250337A1, “HYBRID ANTIMICROBIAL PEPTIDES” (UNIVERSIDADE FEDERAL DO ABC, priority 2023, published 2026).

Data set [1] relates to skin tissue. The experiment in a line: Skin tissue histopathological analysis (H&E). Conditions: 24 h after infection and treatment. The data set is classed as in vivo, mice. The procedure: Skin tissue histopathological analysis. […] The fur on the back of the mice was removed and the mice were infected and treated as described in the Skin abscess infection mouse model section. After 24 h, mice were euthanized for tissue collection. Samples were pre-fixed in individual cassettes, then transferred to a container filled with 70% EtOH for slicing and staining. Next, the samples were placed on glass slides for microscopy analysis. We collected the tissue from three mice per condition analyzed.

For data set [2], the system named is MCF-7 human breast cancer cells. Description: Anticancer activity, MTT assay. As to conditions: for MCF-7 4 h LD50 / MCF-7 24 h LD50: MTT. It is filed as cell-based. The procedure: The anticancer activity assays were performed using MCF-10A human breast epithelial cells and MCF-7 mammary cancer cells as previously described by Pedron et al. 86. Briefly, the day before treatment, the cells were incubated at 37° C. and 5% CO2 for 24 h. The cells were treated with peptides ranging from 12.5 to 100 μmol L^−1 (MCF10-A cells) and 0.8 to 100 μmol L^−1 (MCF-7 cells) for 4 h and 24 h at 37° C., and cell viability was measured using 3-(4,5-Dimethylthiazol-2-yl)-2,5-diphenyltetrazolium bromide (MTT) assays 87. Three independent replicates were performed in each case.
Background: Tetrazolium assays rely on reduction of a dye to a coloured formazan, in cell work by metabolically active cells.

Data set [3] relates to bacterial strains. Description: Antimicrobial activity over the panel of strains. It is filed as cell-based. As to conditions: range over strains tested. The procedure: Initially, the antimicrobial activity was determined by liquid growth inhibition assays, as previously described by Pedron et al.^62. Briefly, Peptone Broth and Potato Dextrose Broth (Invitrogen) were used for antibacterial and antifungal assays, respectively. Two-fold serial dilutions of peptides (0.09-50 μmol L^−1) and microorganisms (Serratia marcescens ATCC 4112, Enterobacter cloacae β-12, Micrococcus luteus A270, Bacillus megaterium ATCC 10778, Bacillus subtilis ATCC 6633, Candida albicans MDM8, and Candida tropicalis IOC 4560) were incubated at 37° C. for 18 h (for bacteria) or 24 h (for fungi), and microbial growth was assessed by absorbance measurements at 595 nm. Experiments were performed in three biological repeats.
(§1) Method. The minimal inhibitory concentration (MIC) against the ESKAPE pathogens was determined using the broth microdilution method^81, 82 in Luria-Bertani (LB) medium. The MIC value was defined as the lowest concentration of peptide at which no microbial growth was observed. A. baumannii ATCC19606, E. coli ATCC11775, E. coli AIC221, E. coli AIC222, K. pneumoniae ATCC13883, S. aureus ATCC12600 P. aeruginosa PAO1, and P. aeruginosa PA14 were incubated on agar plates, and after 24 h, three isolated colonies were inoculated to 5 mL of Luria-Bertani (LB) broth and maintained at 37° C. overnight with shaking. Peptides were then added to 96-well polystyrene microtiter plates at concentrations ranging from 0 to 128 μmol L^−1, and 5×10^5 CFU mL^−1 of each bacterium was inoculated in each well. The plates were incubated at 37° C. for 24 h. Bacterial growth was measured using a microplate reader at 610 nm. Three independent replicates were performed.

For data set [4], the system named is P. aeruginosa. Description: MIC against P. aeruginosa. It is filed as cell-based. As to conditions: strain not given. As to the method:
as §1

No end group written: not given here.

On to “FLGAIGNVLKSIL-NH2 [TV, Phe-Leu-Gly-Ala-Ile-Gly-Asn-Val-Leu-Lys-Ser-Ile-Leu]”, for which the “tissue morphology / toxicity, H&E staining” value in data set [1] was “Neither TV nor VmCT1 changed the tissue's morphology”.
On to “FLGALWNVAKSVF-NH2 [VmCT1, Phe-Leu-Gly-Ala-Len-Trp-Asu-Val-Ala-Lys-Ser-Val-Phe, reference compound]”, for which, in data set [2], the “MCF-7 4 h LD50” value was found to be 50 µmol/L and the “MCF-7 24 h LD50” value was determined as 12.5 µmol/L. In addition, the “concentration with activity against MCF-7 human breast cancer cells” value in data set [2] (incubation time not stated) was 50 µmol/L. In data set [1], the “tissue morphology / toxicity, H&E staining” value is “Neither TV nor VmCT1 changed the tissue's morphology”.
“FLPLIGRVLSGIL-NH2 [Temporin A, Phe-Leu-Pro-Leu-Ile-Gly-Arg-Val-Leu-Ser-Gly-Ile-Leu, reference compound]”: in data set [2], the “MCF-7 4 h LD50” value was found to be 50 µmol/L and the “MCF-7 24 h LD50” value is 50 µmol/L.
As to “ILGAILNVLKSLG-NH2 [PV, Ile-Leu-Gly-Ala-Ile-Leu-Asn-Val-Leu-Lys-Ser-Leu-Gly]”, the “MIC range of the peptide over the strains” value in data set [3] is 3.1 to 64 µM. Further, the “MIC against P. aeruginosa” value in data set [4] came to 128 µM.
